Results on nine molecules are retold here after patent US11104883B2, “SC-beta cells and compositions and methods for generating the same” (President and Fellows of Harvard College, priority 2013, dated 2021).

Assay [1] concerns SC-β cells. Kind of assay: Anti-diabetic drug treatment of plated SC-β cells, secreted human insulin ELISA. Type of assay: cell-based. Particulars: 2 and 20 mM glucose. Here is the method:
FIG. 16A is a schematic illustration of the utility of SC-β cells for treating diabetes or screening drugs to improve function or replication. FIG. 16B is a table listing diabetic drugs investigated and their general therapeutic category. FIG. 16C is a graph showing ELISA measurements of secreted human insulin from plated SC-β cells treated with the indicated drugs in 2 and 20 mM glucose. Indicated p values compare the insulin value in 20 mM glucose between the drug and the control. FIG. 16D is an immunofluorescence image of dispersed and plated SC-β cells stained with DAPI (blue), C-peptide (green), and Ki67 (red) without treatment. FIG. 16E is an immunofluorescence image of dispersed and plated SC-β cells stained with DAPI (blue), C-peptide (green), and Ki67 (red) treated with prolactin for 48 hours. […] FIG. 16G is a graph illustrating fasting blood glucose measurements of Akita mice transplanted with SC-β cells (n=6) or PH cells (n=6). *p<0.05 comparing the two cell groups on the same day. FIG. 16H is a graph illustrating blood glucose measurements from progressively diabetic Akita mice transplanted with SC-β cells or PH cells. Measurements were taken before (white bars) and 20 min after (black bars) a glucose injection of mice transplanted 2 weeks prior. Glucose measurements were saturated at 550 mg/dL. *p<0.05 comparing the two cell groups at the same time post glucose injection. FIG. 16I is a graph showing ELISA measurements of human insulin from the serum of Akita mice 20 min after a glucose injection. Mice were challenged with glucose 2 weeks post transplantation. *p<0.05 comparing the two cell groups. Scale bar-50 μm.
The inventors first tested whether SC-β cells could respond to existing anti-diabetic drugs from several different classes (FIG. 16B). LY2608204 is glucokinase activator in clinical trials while liraglutide, tolbutamide, and nateglinide are examples of GLP-1 agonists and secretagogues (sulfonylureas and meglitinides), respectively, that have been used clinically (Matschinsky, 2009; Modi, 2007; Vetere et al., 2014).

Assay [2] deals with cells in Steps 3-6. Description: Modified differentiation protocol (Steps 3-6): cell survival and marker-positive populations. The following applies: for cell survival: Steps 3-5. Format: cell-based, human. The source says:
FIG. 15A is a schematic illustration of the protocol.
One challenge for the stem cell field has been generating a sufficient quantity of SC-β cells that can be useful for drug screening, disease modeling, or therapeutic use. For example, hES cells are technically difficult to culture, are vulnerable to apoptosis upon cellular detachment and dissociation, undergo massive cell death particularly after complete dissociation, and have low cloning efficiency. (Watanabe, K. et al., Nature Biotechnology 25, 681-686 (2007)). As a result, the quantity of viable SC-β cells yielded may be low. By modify the protocol between Steps 3 and 6 in the manner shown in FIG. 15A, more pure NKX6.1+ endocrine clusters can be generated (FIG. 15B) leading to more SC-β cells that can be therapeutically useful.
In Steps 3-5, for instance, cell survival can be improved by adding a rho-associated protein kinase inhibitor, or a Rock inhibitor. It is believed that the addition of a Rock inhibitor enhances survival of ES cells by preventing dissociation-induced apoptosis thus increasing their cloning efficiency. (Watanabe et al.) Examples of Rock inhibitors include, but are not limited to, Y-27632, Fasudil/HA1077, and H-1152.
In addition to treating the cells with a Rocki inhibitor, the cells in Steps 3-4 can be treated with ActivinA alone or in combination with Nicotinamide. […] Since SOX2 and NKX6-1 are mutually exclusive (FIG. 15E), down-regulation of SOX2 results in the up-regulation of NKX6-1, a marker for a mature pancreatic cell.
In Steps 5-6, cell survival can further be enhanced by treating cells with staurosporine. Staurosporine is known to be an activator of neuronal, glial, and stem cell-like neurosphere differentiation and is also thought to induce apoptosis. (Schumacher, et al., Mol. Cell. Neurosci. 2003; 23(4): 669-680).
Finally, cell survival can further be enhanced by treating cells with a culture medium containing Alk5i, T3 in combination with XXI, a γ-secretase inhibitor that improves β cell maturation.

The subject of assay [3] is SC-β cells. Kind of assay: GSIS of SC-β cells after additional factors in the last-step (Stage 6) media. Format: cell-based, human. Particulars: factor added to CMRL media containing Alk5 inhibitor and T3 hormone; versus CMRL only, CMRL+Alk5i+T3, S3+Alk5i+T3. An excerpt:
To induce the in vitro maturation of at least some of the Pdx1-positive, NKX6-1-positive, insulin-positive endocrine cells into SC-β cells, the Pdx1-positive, NKX6-1-positive, insulin-positive endocrine cells are maintained in a suitable culture medium for a sufficient period of time. […] Adding additional factors to the CMRL media at the last step of differentiation (Stage 6) (FIG. 14A), however, was also found to generate a better glucose stimulated insulin secretion (GSIS) response by SC-β cells as measured by either stimulation index between high and low glucose challenges or by the amount of insulin released. Such additional factors may include, but are not limited to, Sant1, XXI, and SSP. The stimulation index, as calculated by the ratio of insulin secreted in high glucose (15 mM) to low glucose (2.5 mM), was greater for the SC-β cells maintained in a CMRL media containing Alk5 inhibitor, T3 hormone and either Sant1, XXI or SSP than those SC-β cells maintained in only CMRL media, CMRL media containing Alk5 inhibitor and T3 hormone, or S3 media containing Alk5 inhibitor and T3 hormone (FIG. 14B). Furthermore, the amount of insulin secreted was greater for the SC-β cells maintained in a CMRL media containing Alk5 inhibitor, T3 hormone and either Sant1, XXI or SSP than those SC-β cells maintained in only CMRL media, CMRL media containing Alk5 inhibitor and T3 hormone, or S3 media containing Alk5 inhibitor and T3 hormone (FIG. 14C).
Alternatively, Days 21-35: CMRLS+10 μM Alk5i II+1 μM T3+Sant1.
Alternatively, Days 21-35: CMRLS+10 μM Alk5i II+1 μM T3+XXI.
Alternatively, Days 21-35: CMRLS+10 μM Alk5i II+1 μM T3+SSP.

Assay [4] has as its system SC-β cells. Description: β cell replication: C-peptide and Ki67 staining of plated SC-β cells. Format: cell-based, human. The following applies: SC-β cells treated with prolactin for 48 hours. The procedure:
FIG. 16A is a schematic illustration of the utility of SC-β cells for treating diabetes or screening drugs to improve function or replication. FIG. 16B is a table listing diabetic drugs investigated and their general therapeutic category. FIG. 16C is a graph showing ELISA measurements of secreted human insulin from plated SC-β cells treated with the indicated drugs in 2 and 20 mM glucose. Indicated p values compare the insulin value in 20 mM glucose between the drug and the control. FIG. 16D is an immunofluorescence image of dispersed and plated SC-β cells stained with DAPI (blue), C-peptide (green), and Ki67 (red) without treatment. FIG. 16E is an immunofluorescence image of dispersed and plated SC-β cells stained with DAPI (blue), C-peptide (green), and Ki67 (red) treated with prolactin for 48 hours. […] FIG. 16G is a graph illustrating fasting blood glucose measurements of Akita mice transplanted with SC-β cells (n=6) or PH cells (n=6). *p<0.05 comparing the two cell groups on the same day. […]
Cells were dispersed and plated onto 96 well plates. […] The percentage of target cell-types was quantified using the Array Scan Cellomics high-content screening system. Here 30 images were acquired per well and quantified. Cells labeled by antibody staining and total cell number (based on DAPI nuclei staining) were quantified to obtain percentages of target cell types.

`O=C(Nc1ncc(SCCN2CCCC2)s1)[C@]1(c2ccc(S(=O)(=O)C3CC3)cc2)C[C@H]1C1CCCCC1` [LY2608204]: in assay [1], the “insulin secretion in vitro following a glucose challenge” value (“insulin secretion” below) is given as “increasing insulin secretion”. With `NC(=O)c1cccnc1` [Nicotinamide], in assay [2], the cell survival entry is reported as “improve cell survival”. In the case of `Cc1nn(-c2ccccc2)c(C)c1/C=N/N1CCN(Cc2ccccc2)CC1` [Sant1], in assay [3], the “amount of insulin secreted” value is listed as “greater” and the “stimulation index, ratio of insulin secreted in high glucose (15 mM) to low glucose (2.5 mM)” value is listed as “greater”. Regarding `C[C@H](NC(=O)Cc1cc(F)cc(F)c1)C(=O)N[C@H]1N=C(c2ccccc2)c2ccccc2N(C)C1=O` [XXI], in assay [2] (added to medium with Alk5i and T3 at Steps 5 and 6), the “NeuroD1+ population” value is on record as “increase the NeuroD1+ population”. For the same molecule, in assay [3], the “amount of insulin secreted” value was “greater” and the “stimulation index, ratio of insulin secreted in high glucose (15 mM) to low glucose (2.5 mM)” value is recorded as “greater”. Turning to `CC(C)[C@H]1CC[C@H](C(=O)N[C@H](Cc2ccccc2)C(=O)O)CC1` [nateglinide], the “insulin secretion” value in assay [1] is on record as “increasing insulin secretion”. Regarding `CN[C@@H]1C[C@H]2O[C@@](C)([C@@H]1OC)n1c3ccccc3c3c4c(c5c6ccccc6n2c5c31)C(=O)NC4` [staurosporine], in assay [2] (Steps 5-6), the “percentage of ChromograninA” value is listed as “increasing the percentage of ChromograninA” and the “percentage of NKX6-1/C-peptide+ cells” value is “increasing the percentage of NKX6-1.C-peptide+ cells”. As to `CCCCNC(=O)NS(=O)(=O)c1ccc(C)cc1` [tolbutamide], in assay [1], the “insulin secretion” value is given as “increasing insulin secretion”.

B1: Activin A: growth factor from the TGF-β superfamily (protein, UniProt P08476 311-426, looked up)
Inhibin beta A chain: GLECDGKVNICCKKQFFVSFKDIGWNDWIIAPSGYHANYCEGECPSHIAGTSGSSLSFHSTVINHYRMRGHSPFANLKSCCVPTKLRPMSMLYYDDGQNIIKKDIQNMIVEECGCS
modifications: Inhibin beta A chain
notes: growth factor from the TGF-β superfamily
Turning to B1, the cell survival entry in assay [2] is “improve cell survival”.

B2: prolactin: hormone tested for β cell replication (protein, UniProt P01236 29-227, looked up)
Prolactin: LPICPGGAARCQVTLRDLFDRAVVLSHYIHNLSSEMFSEFDKRYTHGRGFITKAINSCHTSSLATPEDKEQAQQMNQKDFLSLIVSILRSWNEPLYHLVTEVRGMQEAPEAILSKAVEIEEQTKRLLEGMELIVSQVHPETKENEIYPVWSGLPSLQMADEESRLSAYYNLLHCLRRDSHKIDNYLKLLKCRIIHNNNC
With B2, the “Ki67+/C-peptide+ cells” value in assay [4] is 0.39±0.08%.
